These results are taken from ChEMBL document CHEMBL4229562, “Introduction of a Methyl Group Curbs Metabolism of Pyrido[3,4- d]pyrimidine Monopolar Spindle 1 (MPS1) Inhibitors and Enables the Discovery of the Phase 1 Clinical Candidate N2-(2-Ethoxy-4-(4-methyl-4 H-1,2,4-triazol-3-yl)phenyl)-6-methyl- N8-neopentylpyrido[3,4- d]pyrimidine-2,8-diamine …” (J Med Chem, 2018).

Usually IC50 stands for the concentration that gives 50% inhibition. In general, Ki refers to the dissociation constant of the complex between target and ligand, obtained from inhibition or displacement. A word on the logP: it is a log measure of how a compound divides between an organic and an aqueous phase. A low value points to a more hydrophilic compound. For orientation: solubility means the dissolved amount per volume that the medium holds. One may read the bioavailability as the share of a dose that reaches the circulation, judged against a reference dose that is usually intravenous. A lower bioavailability goes with little systemic uptake. As a reminder, the AUC(0-t) is the area under the concentration-time curve up to a stated or last time point. A word on the Vdss: it is the apparent volume that relates the amount in the body to the concentration in plasma or blood. Usually Cmax stands for the maximum level reached in the sampled fluid or tissue. Broadly, the clearance is a measure of how efficiently the substance is removed, as volume per time. Higher therefore signals a high capacity for elimination. Usually pKa stands for the negative logarithm of the acid dissociation constant. Read a low pKa as a group that gives up its proton readily.

In brackets after ≈: the same amount, converted by molar mass. Some results are limits rather than exact numbers.

Data set [1] can be described thus: Intrinsic clearance in CD1 mouse liver microsomes assessed per mg protein at 1 uM preincubated for 10 mins followed NADPH/UDP-glucuronic acid addition and measured after 30 mins by LC-MS/MS analysis. The class given is ADME, microsome. To be noted: 0.5 h. In general terms: Liver microsomes are vesicles of endoplasmic reticulum, rich in cytochrome P450 enzymes.

Data set [2] deals with T1, Dual specificity protein kinase TTK (Homo sapiens, UniProt P33981).
T1 sequence (P33981 whole entry): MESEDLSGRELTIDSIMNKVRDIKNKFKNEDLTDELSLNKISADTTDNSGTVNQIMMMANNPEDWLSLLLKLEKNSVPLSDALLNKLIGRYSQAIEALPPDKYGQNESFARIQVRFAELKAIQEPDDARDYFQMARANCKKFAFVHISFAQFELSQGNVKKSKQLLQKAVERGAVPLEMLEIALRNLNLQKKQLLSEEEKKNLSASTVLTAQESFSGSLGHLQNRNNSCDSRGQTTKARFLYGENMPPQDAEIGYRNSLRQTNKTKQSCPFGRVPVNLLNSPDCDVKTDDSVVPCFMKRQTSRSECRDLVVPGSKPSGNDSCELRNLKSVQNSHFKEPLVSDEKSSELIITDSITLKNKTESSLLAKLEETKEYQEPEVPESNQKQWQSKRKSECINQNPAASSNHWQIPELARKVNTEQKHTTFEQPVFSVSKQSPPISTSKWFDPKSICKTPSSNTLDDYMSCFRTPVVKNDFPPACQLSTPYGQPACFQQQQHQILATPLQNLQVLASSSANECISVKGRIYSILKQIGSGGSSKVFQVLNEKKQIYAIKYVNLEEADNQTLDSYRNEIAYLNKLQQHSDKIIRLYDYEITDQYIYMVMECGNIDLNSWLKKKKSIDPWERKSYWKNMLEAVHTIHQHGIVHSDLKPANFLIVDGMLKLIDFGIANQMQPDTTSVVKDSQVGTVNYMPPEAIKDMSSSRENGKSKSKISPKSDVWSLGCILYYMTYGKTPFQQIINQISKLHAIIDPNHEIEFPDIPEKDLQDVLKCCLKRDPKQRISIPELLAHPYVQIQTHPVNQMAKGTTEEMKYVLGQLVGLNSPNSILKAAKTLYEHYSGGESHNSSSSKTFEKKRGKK
Description: Inhibition of MPS1 autophosphorylation at Thr33/Ser37 in human HCT116 cells after 2 hrs by MSD assay

Data set [3] is described as follows: Drug metabolism in human liver microsomes assessed as 5-(3-methoxy-4-(8-(neopentylamino)pyrido[3,4-d]pyrimidin-2-ylamino)phenyl)-4-methyl-4H-1,2,4-triazol-3-ol formation at 1 uM preincubated for 10 mins followed NADPH/UDP-glucuronic acid addition and measured after 30 mins by LC-MS/MS analysis. The class given is ADME, microsome. To be noted: 0.5 h.
In another data set the target is CDK2/Cyclin A2 (Homo sapiens, UniProt P24941).
A short description of data set [4]: Lipophilicity, log P of the compound. Type of data set: physicochemical. To be noted: octanol/water.
For data set [5], the target named is T1, Dual specificity protein kinase TTK. This is another data set of the same source.
Description: Inhibition of full length human N-terminal 6xHis-tagged MPS1 expressed in baculovirus expression system using 5FAM-H236 peptide as substrate after 60 to 90 mins by caliper assay
Data set [6] in a line: Intrinsic clearance in human liver microsomes assessed per mg protein at 1 uM preincubated for 10 mins followed NADPH/UDP-glucuronic acid addition and measured after 30 mins by LC-MS/MS analysis. Type of data set: ADME, microsome. To be noted: 0.5 h.
Data set [7] in a line: Drug metabolism in human liver microsomes assessed as 1-(2-(2-methoxy-4-(4-methyl-4H-1,2,4-triazol-3-yl)phenylamino)-6-methylpyrido[3,4-d]pyrimidin-8-ylamino)-2,2-dimethylpropan-1-ol formation at 1 uM preincubated for 10 mins followed NADPH/UDP-glucuronic acid addition and measured after 30 mins by LC-MS/MS analysis. Type of data set: ADME, microsome. To be noted: 0.5 h.
Data set [8] is described as follows: Solubility of the compound in PBS buffer at pH 7.4 by HPLC analysis. The class given is physicochemical.
The nature of data set [9]: Drug level in human liver microsomes treated with 1 uM N2-(2-Methoxy-4-(4-methyl-4H-1,2,4-triazol-3-yl)phenyl)-6-methyl-N8-neopentylpyrido[3,4-d]pyrimidine-2,8-diamine assessed as compound formation preincubated for 10 mins followed NADPH/UDP-glucuronic acid addition and measured after 30 mins by LC-MS/MS analysis. Type of data set: ADME, microsome. The note with it: 0.5 h.

Data set [10] is described as follows: Oral bioavailability in dog at 5 mg/kg by ESI-LCMS/MS analysis. The class given is ADME, organism-based, Canis lupus familiaris. The note with it: in vivo.
The subject of data set [11] is Canis familiaris. In words: Half life in dog at 1 mg/kg, iv by ESI-LCMS/MS analysis. Type of data set: ADME, organism-based, Canis lupus familiaris. The note with it: in vivo.
The nature of data set [12]: AUClast in dog at 5 mg/kg, po measured after 48 hrs by ESI-LCMS/MS analysis. Type of data set: ADME, organism-based, Canis lupus familiaris. To be noted: in vivo.
Data set [13] deals with Canis familiaris. The data set is described as follows: Volume of distribution at steady state in dog at 1 mg/kg, iv by ESI-LCMS/MS analysis. Type of data set: ADME, organism-based, Canis lupus familiaris. The note with it: in vivo.
A short description of data set [14]: Cmax in dog at 5 mg/kg, po by ESI-LCMS/MS analysis. Set-up: dose 5 mg/kg, route oral. The class given is ADME, organism-based, Canis lupus familiaris. The note with it: in vivo.
Data set [15] can be described thus: Drug level in human liver microsomes treated with 1 uM N2-(2-Methoxy-4-(4-methyl-4H-1,2,4-triazol-3-yl)phenyl)-N8-neopentylpyrido[3,4-d]pyrimidine-2,8-diamine assessed as compound formation preincubated for 10 mins followed NADPH/UDP-glucuronic acid addition and measured after 30 mins by LC-MS/MS analysis. Type of data set: ADME, microsome. To be noted: 0.5 h.

Data set [16] in a line: Volume of distribution at steady state in mouse at 5 mg/kg, iv by ESI-LCMS/MS analysis. The class given is ADME, organism-based. To be noted: in vivo, read-out: Vdss.
The nature of data set [17]: Clearance in mouse at 5 mg/kg, iv by ESI-LCMS/MS analysis. The note with it: in vivo. Type of data set: ADME, organism-based.
The target of data set [18] is Mitogen-activated protein kinase 10 (Homo sapiens, UniProt P53779). The data set is described as follows: Inhibition of recombinant human full length N-terminal GST-tagged JNK3 expressed in baculovirus expression system by Z'-LYTE assay.
Mitogen-activated protein kinase 10, sequence (P53779 whole entry): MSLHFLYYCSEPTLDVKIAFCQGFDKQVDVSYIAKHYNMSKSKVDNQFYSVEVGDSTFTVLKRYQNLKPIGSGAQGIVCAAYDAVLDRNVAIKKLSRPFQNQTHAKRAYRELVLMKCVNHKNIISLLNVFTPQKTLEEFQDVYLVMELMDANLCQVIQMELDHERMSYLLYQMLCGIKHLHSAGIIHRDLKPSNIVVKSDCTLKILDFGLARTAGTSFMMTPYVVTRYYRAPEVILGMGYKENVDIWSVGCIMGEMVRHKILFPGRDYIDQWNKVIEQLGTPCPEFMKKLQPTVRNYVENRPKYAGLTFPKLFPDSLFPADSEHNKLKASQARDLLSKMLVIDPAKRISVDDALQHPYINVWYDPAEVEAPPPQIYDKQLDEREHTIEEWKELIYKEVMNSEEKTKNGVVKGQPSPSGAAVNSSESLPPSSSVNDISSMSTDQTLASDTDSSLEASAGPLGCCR
In data set [19] the test system is Mus musculus. In words: Half life in mouse at 5 mg/kg, iv by ESI-LCMS/MS analysis. The class given is ADME, organism-based. The note with it: in vivo.
A short description of data set [20]: Cmax in mouse at 5 mg/kg, po by ESI-LCMS/MS analysis. The class given is ADME, organism-based. Set-up: dose 5 mg/kg, route oral. The note with it: in vivo.
The test system of data set [21] is Mus musculus. The data set is described as follows: Oral bioavailability in mouse at 5 mg/kg by ESI-LCMS/MS analysis. The class given is ADME, organism-based. The note with it: in vivo.
Data set [22] concerns the target Leucine-rich repeat serine/threonine-protein kinase 2 (Homo sapiens, UniProt Q5S007). In words: Inhibition of recombinant human GST-tagged LRRK2 (970 to 2527 residues) expressed in baculovirus expression system by Z'-LYTE assay.
A short description of data set [23]: AUClast in rat at 5 mg/kg, po measured after 24 hrs by ESI-LCMS/MS analysis. Type of data set: ADME, organism-based. To be noted: in vivo.
Data set [24] is described as follows: Dissociation constant, pKa of the compound. Type of data set: physicochemical.
The nature of data set [25]: AUClast in mouse at 5 mg/kg, po measured after 6 hrs by ESI-LCMS/MS analysis. Type of data set: ADME, organism-based. To be noted: in vivo.
Data set [26] in a line: Clearance in rat at 2.5 mg/kg, iv by ESI-LCMS/MS analysis. Type of data set: ADME, organism-based. To be noted: in vivo.
The subject of data set [27] is Rattus norvegicus. In words: Half life in rat at 2.5 mg/kg, iv by ESI-LCMS/MS analysis. Type of data set: ADME, organism-based. To be noted: in vivo.
A short description of data set [28]: Volume of distribution at steady state in rat at 2.5 mg/kg, iv by ESI-LCMS/MS analysis. The class given is ADME, organism-based. The note with it: in vivo, read-out: Vdss.
In data set [29] the test system is Rattus norvegicus. The data set is described as follows: Oral bioavailability in rat at 5 mg/kg by ESI-LCMS/MS analysis. The class given is ADME, organism-based. The note with it: in vivo.
Data set [30] concerns the target Mitogen-activated protein kinase 9 (Homo sapiens, UniProt P45984). In words: Inhibition of recombinant human full length His-tagged JNK2 expressed in baculovirus expression system by Z'-LYTE assay.
Data set [31] addresses Mitogen-activated protein kinase 8 (Homo sapiens, UniProt P45983). The data set is described as follows: Inhibition of recombinant human full length His-tagged JNK1 expressed in baculovirus expression system by Z'-LYTE assay.
The nature of data set [32]: Protein binding in mouse plasma. The class given is ADME, cell-free.
Data set [33] is described as follows: Cmax in rat at 5 mg/kg, po by ESI-LCMS/MS analysis. The note with it: in vivo. Set-up: dose 5 mg/kg, route oral. Type of data set: ADME, organism-based.

Leucine-rich repeat serine/threonine-protein kinase 2, sequence (Q5S007 whole entry, the tested form may be a part): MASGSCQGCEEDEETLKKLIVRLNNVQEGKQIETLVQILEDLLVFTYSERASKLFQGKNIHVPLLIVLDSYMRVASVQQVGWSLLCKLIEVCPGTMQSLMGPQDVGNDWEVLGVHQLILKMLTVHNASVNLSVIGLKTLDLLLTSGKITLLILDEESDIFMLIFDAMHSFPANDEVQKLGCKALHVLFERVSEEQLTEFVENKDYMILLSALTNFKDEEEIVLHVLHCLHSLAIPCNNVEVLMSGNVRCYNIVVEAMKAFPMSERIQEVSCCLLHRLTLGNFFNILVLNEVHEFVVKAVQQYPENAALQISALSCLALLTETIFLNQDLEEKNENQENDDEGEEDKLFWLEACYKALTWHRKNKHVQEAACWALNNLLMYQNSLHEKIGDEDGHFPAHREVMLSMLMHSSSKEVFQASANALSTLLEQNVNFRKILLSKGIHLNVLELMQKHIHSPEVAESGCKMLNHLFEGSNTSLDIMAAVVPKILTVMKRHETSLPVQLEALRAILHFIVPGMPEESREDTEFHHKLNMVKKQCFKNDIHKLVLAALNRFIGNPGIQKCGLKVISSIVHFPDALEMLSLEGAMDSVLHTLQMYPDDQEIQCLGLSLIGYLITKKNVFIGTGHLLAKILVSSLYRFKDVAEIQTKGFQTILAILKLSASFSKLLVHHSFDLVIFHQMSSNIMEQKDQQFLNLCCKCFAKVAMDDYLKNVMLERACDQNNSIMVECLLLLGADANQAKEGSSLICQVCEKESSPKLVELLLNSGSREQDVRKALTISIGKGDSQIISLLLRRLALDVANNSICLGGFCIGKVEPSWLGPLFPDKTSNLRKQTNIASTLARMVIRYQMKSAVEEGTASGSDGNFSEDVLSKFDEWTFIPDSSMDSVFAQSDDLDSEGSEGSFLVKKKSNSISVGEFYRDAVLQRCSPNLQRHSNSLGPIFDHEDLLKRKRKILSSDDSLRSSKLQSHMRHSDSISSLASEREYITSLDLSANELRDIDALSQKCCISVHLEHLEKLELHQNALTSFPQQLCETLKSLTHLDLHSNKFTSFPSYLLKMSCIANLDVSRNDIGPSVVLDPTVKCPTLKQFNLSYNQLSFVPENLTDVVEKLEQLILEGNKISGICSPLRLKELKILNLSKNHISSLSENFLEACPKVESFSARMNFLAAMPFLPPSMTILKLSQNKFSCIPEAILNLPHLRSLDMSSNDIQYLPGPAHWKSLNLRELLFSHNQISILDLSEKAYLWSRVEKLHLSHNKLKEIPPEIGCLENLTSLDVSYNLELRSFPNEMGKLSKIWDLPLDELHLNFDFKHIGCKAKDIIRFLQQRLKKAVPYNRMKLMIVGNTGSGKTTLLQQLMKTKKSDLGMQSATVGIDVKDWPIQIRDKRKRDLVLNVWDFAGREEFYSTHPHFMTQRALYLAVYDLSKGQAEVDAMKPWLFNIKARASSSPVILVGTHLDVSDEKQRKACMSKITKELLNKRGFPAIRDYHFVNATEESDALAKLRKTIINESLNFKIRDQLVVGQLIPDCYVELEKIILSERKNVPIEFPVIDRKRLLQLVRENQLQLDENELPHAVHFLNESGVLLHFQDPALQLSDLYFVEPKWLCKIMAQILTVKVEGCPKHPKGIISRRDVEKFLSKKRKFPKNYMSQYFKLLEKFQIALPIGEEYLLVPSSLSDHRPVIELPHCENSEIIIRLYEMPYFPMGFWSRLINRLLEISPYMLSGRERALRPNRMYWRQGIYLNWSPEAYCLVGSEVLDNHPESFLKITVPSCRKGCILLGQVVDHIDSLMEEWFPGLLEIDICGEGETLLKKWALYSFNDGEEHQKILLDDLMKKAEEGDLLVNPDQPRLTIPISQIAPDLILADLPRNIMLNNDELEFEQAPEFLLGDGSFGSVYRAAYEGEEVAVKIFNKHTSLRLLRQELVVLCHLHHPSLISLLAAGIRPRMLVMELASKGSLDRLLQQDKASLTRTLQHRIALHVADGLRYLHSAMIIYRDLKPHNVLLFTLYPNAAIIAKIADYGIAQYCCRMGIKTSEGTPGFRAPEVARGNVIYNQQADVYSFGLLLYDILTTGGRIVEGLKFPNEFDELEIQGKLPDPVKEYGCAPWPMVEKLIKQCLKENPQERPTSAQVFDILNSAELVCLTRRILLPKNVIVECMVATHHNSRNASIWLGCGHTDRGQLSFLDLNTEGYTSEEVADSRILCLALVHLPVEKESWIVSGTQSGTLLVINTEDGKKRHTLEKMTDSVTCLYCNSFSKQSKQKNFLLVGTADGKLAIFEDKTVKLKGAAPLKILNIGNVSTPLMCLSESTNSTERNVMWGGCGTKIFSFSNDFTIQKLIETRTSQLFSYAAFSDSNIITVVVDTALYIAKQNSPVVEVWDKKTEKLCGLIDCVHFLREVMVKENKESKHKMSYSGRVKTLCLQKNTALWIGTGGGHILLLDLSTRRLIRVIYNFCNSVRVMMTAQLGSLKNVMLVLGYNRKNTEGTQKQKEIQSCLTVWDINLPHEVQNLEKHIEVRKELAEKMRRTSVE
Mitogen-activated protein kinase 9, sequence (P45984 whole entry): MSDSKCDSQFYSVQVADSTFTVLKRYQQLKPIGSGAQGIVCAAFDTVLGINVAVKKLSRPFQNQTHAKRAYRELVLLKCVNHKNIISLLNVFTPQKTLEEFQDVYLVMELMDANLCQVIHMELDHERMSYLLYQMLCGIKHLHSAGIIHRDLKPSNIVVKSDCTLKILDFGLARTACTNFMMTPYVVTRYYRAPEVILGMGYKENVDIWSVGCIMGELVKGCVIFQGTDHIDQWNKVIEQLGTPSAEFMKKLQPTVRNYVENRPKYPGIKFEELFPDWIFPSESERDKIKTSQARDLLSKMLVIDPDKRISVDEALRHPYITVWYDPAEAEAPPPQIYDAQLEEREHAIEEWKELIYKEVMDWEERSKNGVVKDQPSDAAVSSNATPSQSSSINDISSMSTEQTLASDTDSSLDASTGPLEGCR
Mitogen-activated protein kinase 8, sequence (P45983 whole entry): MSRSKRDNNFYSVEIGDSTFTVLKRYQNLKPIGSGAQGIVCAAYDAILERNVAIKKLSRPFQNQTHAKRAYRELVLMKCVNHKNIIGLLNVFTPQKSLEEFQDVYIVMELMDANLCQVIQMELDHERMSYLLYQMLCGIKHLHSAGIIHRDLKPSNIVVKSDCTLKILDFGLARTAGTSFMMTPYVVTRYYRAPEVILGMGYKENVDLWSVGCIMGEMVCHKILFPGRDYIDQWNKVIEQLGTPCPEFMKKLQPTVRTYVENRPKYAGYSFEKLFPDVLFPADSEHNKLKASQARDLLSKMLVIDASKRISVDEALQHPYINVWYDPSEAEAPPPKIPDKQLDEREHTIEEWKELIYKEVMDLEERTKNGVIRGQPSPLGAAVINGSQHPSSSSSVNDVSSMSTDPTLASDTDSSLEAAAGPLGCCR

For the compound `COc1cc(-c2nncn2C)ccc1Nc1ncc2ccnc(NCC(C)(C)C)c2n1`, the CLH in data set [1] is 81.5 µL/min/mg; in [6] it was 92.1 µL/min/mg. Moreover, the IC50 in data set [2] turned out to be 3.5 nM; against CDK2/Cyclin A2, 16 nM. Also, the Drug metabolism entry in data set [3] was “Metabolite_Detected”. The inhibition constant Ki at CDK2/Cyclin A2 is 8 nM; in [5], not above 0.07 nM. In data set [4], this compound displayed a lipophilicity (logP) of 3.6.
As for `COc1cc(-c2nncn2C)ccc1Nc1ncc2cc(C)nc(NCC(C)(C)C)c2n1`, the values for the CLH in data set [1] and in [6] were 41.1 µL/min/mg and 23.8 µL/min/mg, respectively. Further, in data set [7], the Drug metabolism result was “Metabolite_Detected”. The solubility in data set [8] stood at 8.6 µM (≈ 3.72 µg/mL). In addition, the IC50 in [2] turned out to be 30 nM; against CDK2/Cyclin A2 it was 130 nM; in [5] it was 13 nM. The values for the Ki (at CDK2/Cyclin A2; in [5]) were 65 nM and 0.13 nM, respectively. In data set [4], this compound displayed a logP of 3.88.
In the case of `COc1cc(-c2nncn2C)ccc1Nc1ncc2cc(C)nc(NC(O)C(C)(C)C)c2n1` (configuration not stated), the Drug uptake result in data set [9] is listed as “Active”.
`CCOc1cc(-c2nncn2C)ccc1Nc1ncc2cc(C)nc(NCC(C)(C)C)c2n1.Cl.Cl` yielded a bioavailability in data set [10] of 100%. The t1/2 in the data set on Canis familiaris [11] came to 12 h. In data set [12], this compound registered an AUC(0-t) at 48 h of 147 µM·h. The volume of distribution (Vdss) with Canis familiaris [13] was 1.1 L/kg. In data set [14], this compound showed a Cmax of 7770 nM.
As for `COc1cc(-c2nnc(O)n2C)ccc1Nc1ncc2ccnc(NCC(C)(C)C)c2n1`, the Drug uptake result in data set [15] is “Active”.
On to `CCOc1cc(-c2nncn2C)ccc1Nc1ncc2cc(C)nc(NCC(C)(C)C)c2n1` [BOS-172722], for which the Vd is 2.46 L/kg in [16] and 3.52 L/kg in data set [28]. Moreover, the clearance in [17] stood at 10.9 mL/min/kg; in data set [26], 10.1 mL/min/kg. In addition, the half-inhibitory concentration (IC50) in [18] is 242 nM; in data set [22], 48 nM; in data set [2], 63 nM; at CDK2/Cyclin A2 it was 1020 nM; in data set [30], 76 nM; in [31], 92 nM. Besides, in data set [5], half-maximal inhibition (IC50) required 11 nM. Further, the t1/2 in the data set on Mus musculus [19] came out at 2.68 h; in the data set on Rattus norvegicus [27] it was 4.66 h. The CLH in [1] came out at 26.3 µL/min/mg; in data set [6], 8 µL/min/mg. In addition, the values for the Cmax in [20] and in data set [33] were 2760 nM and 813 nM, respectively. In addition, the F with Mus musculus [21] is given as 81%; with Rattus norvegicus [29] it was 63%. The solubility in [8] was determined as 6.6 µM (≈ 2.95 µg/mL). For the same compound, the exposure AUC(0-t) at 24 h in data set [23] came to 11.3 µM·h. The compound further showed a pKa in data set [24] of 2.63 to 6.22. Besides, the results for the Ki (at CDK2/Cyclin A2; in data set [5]) were 510 nM and 0.11 nM, respectively. The compound also registered an area under the curve AUC(0-t) at 6 h in [25] of 11 µM·h. The compound also showed a logP in data set [4] of 4.23. Further, the PPB in data set [32] was 99.85%.
